Test system: T1, NucGT
T1 construct: glucosyltransferase enzyme
Assay: HPLC product assay at […] nm, initial rates, Michaelis-Menten fit
Assay type: biochemical, Streptomyces calvus
Settings: 17.7 mM UDP-glucose (saturating), 100 mM MgCl2, 50 mM Tris-HCl pH 7.8, 37 °C

SMILES | Km
C=C1O[C@@H](n2cnc3c(N)ncnc32)[C@H](O)[C@@H]1O [compound 12, 4′,5′-didehydro-5′-deoxyadenosine] | 365 ± 6 µM
Nc1ncnc2c1ncn2[C@@H]1O[C@H](CO)[C@@H](O)[C@H]1O [adenosine] | 487 ± 53 µM

From article PMC10616807, “3′-O-β-Glucosyl-4′,5′-didehydro-5′-deoxyadenosine Is a Natural Product of the Nucleocidin Producers Streptomyces virens and Streptomyces calvus” (Journal of Natural Products, 2023)
